Drawing on patent US20240327408A1, “COMPOUNDS CONTAINING TETRAHYDRONAPHTHYRIDINONE OR TETRAHYDROPYRIDOPYRIMIDINONE SKELETON, PREPARATION METHOD THEREFOR AND PHARMACEUTICAL USE THEREOF” (CHINA PHARMACEUTICAL UNIVERSITY, priority 2021, published 2024), this text covers EC50 and IC50 for 28 compounds.

pEC50, pIC50: −log10 of the molar value.

The target in test [1] is T1, hClpP (Homo sapiens, UniProt Q16740).
T1 construct: made in house
Briefly: activating ClpP hydrolysis of FITC-casein (fluorescence kinetic detection). In kind it is biochemical. Conditions: hClpP 1 μM, FITC-Casein 4 μM, 37° C. The procedure:
The specific procedures were as follows:
Test compounds were each prepared into a 100 mM stock solution in DMSO and stored. and 1 μL of stock solution of each of the compounds was taken and diluted to 10 mM by adding 9 μL of DMSO for later use.
The compounds of formula I of the present invention were each diluted at concentrations of 200 μM, 50 μM, 10 μM, 2 μM, 500 nM, 100 nM, 20 nM, and 2 nM in an assay buffer. 50 μL of each of the compounds at different concentrations was added to each well, with 2 replicate wells.
The protein was diluted to 4 μM in an assay buffer. 25 μL of protein was added to each well, and incubated at 37° C. for 30 min. The final concentration was 1 μM.
25 μL of FITC-Casein was added to each well. The final concentration was 4 μM. The mixture was immediately loaded on the machine for detection.
FITC-Casein and FITC-Casein+ClpP were used as negative controls.
The detection temperature was 37° C. The plate was shaken for 3 s. […] Kinetic parameters were set, and scanning was performed once every 1 min for 15 min.

Test [2] relates to MV4; 11 cells. Briefly: inhibiting the growth of MV4; 11 cells. Type of test: cell-based. To be noted: Homo sapiens.

T1 sequence (Q16740 57-277): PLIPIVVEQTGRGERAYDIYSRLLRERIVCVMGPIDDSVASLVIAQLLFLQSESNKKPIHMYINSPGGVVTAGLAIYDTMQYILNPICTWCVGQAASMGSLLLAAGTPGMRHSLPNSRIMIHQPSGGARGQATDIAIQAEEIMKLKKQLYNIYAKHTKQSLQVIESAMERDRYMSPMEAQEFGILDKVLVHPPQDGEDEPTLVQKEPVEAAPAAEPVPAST

The term pEC50 denotes −log10 of the EC50, conventionally taken in molar units. Low readings indicate a high EC50, high ones a low EC50. A word on the pIC50: it is the negative decadic logarithm of the IC50, by convention in mol/L. Read a low pIC50 as a high IC50. `N#Cc1cccc(CN2CCc3c(c(=O)n(Cc4ccc(C(F)(F)F)cc4)c4ccnn34)C2)c1` [Compound I-160, 4-(4-trifluoromethylbenzyl)-7-(3-cyanobenzyl)-6,7,8,9-tetrahydropyrazolo[1,5-a]pyrido[3,4-e]pyrimidine-5(4H)-one] gave a pEC50 in test [1] of 5.00 to 6.00. The compound further showed a negative logarithm of the IC50 (pIC50) in test [2] of 5.00 to 6.00.
Regarding `COc1ccc(Cn2c(=O)c3c(c4cccnc42)CCN(Cc2cccc(Cl)c2)C3)cc1` [Compound I-100, 6-(4-methoxybenzyl)-3-(3-chlorobenzyl)-2,3,4,6-tetrahydropyrido[3,4-c][1,8]naphthyridine-5-(1H)-one], the pEC50 in test [1] is greater than 6.00. The pIC50 in test [2] is greater than 6.00.
In test [1], `CCc1ccccc1Cn1c(=O)c2c(c3cccnc31)CCN(Cc1ccccc1)C2` [Compound I-44, 3-benzyl-6-(2-ethylbenzyl)-2,3,4,6-tetrahydropyrido[3,4-c][1,8]naphthyridine-5-(1H)-one] showed a negative logarithm of the EC50 (pEC50) of 5.00 to 6.00. The same compound showed a pIC50 in test [2] greater than 6.00.
`Cc1ccc(Cn2c(=O)c3c(n4ccnc24)CCN(Cc2cccc(F)c2)C3)cc1` [Compound I-133, 7-(3-fluorobenzyl)-4-(4-methylbenzyl)-6,7,8,9-tetrahydroimidazo[1,2-a]pyrido[3,4-e]pyrimidine-5(4H)-one] showed a pEC50 in test [1] greater than 6.00. The pIC50 in test [2] was greater than 6.00.
In the case of `O=c1c2c(c3cccnc3n1Cc1ccc(F)cc1)CCN(Cc1cccc(Cl)c1)C2` [Compound I-72, 3-(3-chlorobenzyl)-6-(4-fluorobenzyl)-2,3,4,6-tetrahydropyrido[3,4-c][1,8]naphthyridine-5-(1H)-one], the pEC50 in test [1] is greater than 6.00. In test [2], this compound showed a negative logarithm of the IC50 (pIC50) greater than 6.00.
`N#Cc1cccc(CN2CCc3c(c(=O)n(Cc4ccc(Cl)cc4)c4cncn34)C2)c1` [Compound I-167, 7-(3-cyanobenzyl)-4-(4-chlorobenzyl)-6,7,8,9-tetrahydroimidazo[1,5-a]pyrido[3,4-e]pyrimidine-5(4H)-one] had a pEC50 in test [1] of 5.00 to 6.00. In addition, the negative logarithm of the IC50 (pIC50) in test [2] is 5.00 to 6.00.
In test [1], `Cc1ccc(Cn2c(=O)c3c(c4cccnc42)CCN(Cc2ccccc2)C3)cc1` [Compound I-55, 3-benzyl-6-(4-methylbenzyl)-2,3,4,6-tetrahydropyrido[3,4-c][1,8]naphthyridine-5-(1H)-one] gave a pEC50 greater than 6.00. This compound also showed a pIC50 in test [2] greater than 6.00.
In test [1], `N#Cc1cccc(CN2CCc3c(c(=O)n(Cc4ccc5c(c4)OCO5)c4ncccc34)C2)c1` [Compound I-98, 6-([1,3]benzodioxol-5-ylmethyl)-3-(3-cyanobenzyl)-2,3,4,6-tetrahydropyrido[3,4-c][1,8]naphthyridine-5-(1H)-one] showed a pEC50 of 5.00 to 6.00. In test [2], the pIC50 was 5.00 to 6.00.
On to `Cc1ccc(Cn2c(=O)c3c(n4ccnc24)CCN(Cc2ccccc2)C3)cc1` [Compound I-132, 7-benzyl-4-(4-methylbenzyl)-6,7,8,9-tetrahydroimidazo[1,2-a]pyrido[3,4-e]pyrimidine-5(4H)-one], for which, in test [1], the negative logarithm of the EC50 (pEC50) is greater than 6.00. The compound also showed a pIC50 in test [2] greater than 6.00.
Regarding `O=c1c2c(c3cccnc3n1Cc1cccnc1)CCN(Cc1ccccc1)C2` [Compound I-62, 3-benzyl-6-(pyridin-3-ylmethyl)-2,3,4,6-tetrahydropyrido[3,4-c][1,8]naphthyridine-5-(1H)-one], in test [1], the negative-log EC50 (pEC50) is 4.00 to 5.00. Besides, the negative-log IC50 (pIC50) in test [2] is 5.00 to 6.00.
`N#Cc1cccc(CN2CCc3c(c(=O)n(Cc4ccc(F)cc4)c4ncccc34)C2)c1` [Compound I-84, 6-(4-fluorobenzyl)-3-(3-cyanobenzyl)-2,3,4,6-tetrahydropyrido[3,4-c][1,8]naphthyridine-5-(1H)-one] showed a pEC50 in test [1] greater than 6.00. Moreover, the pIC50 in test [2] was greater than 6.00.
As to `Cn1ccc(CN2CCc3c(c(=O)n(Cc4ccccc4)c4ncccc34)C2)n1` [Compound I-24, 6-benzyl-3-((1-methyl-1H-pyrazol-3-yl)methyl)-2,3,4,6-tetrahydropyrido[3,4-c][1,8]naphthyridine-5-(1H)-one], the negative-log EC50 (pEC50) in test [1] is 4.00 to 5.00. The same compound had a pIC50 in test [2] of 5.00 to 6.00.
In test [1], `O=c1c2c(c3cccnc3n1Cc1ccccc1Br)CCN(Cc1ccccc1)C2` [Compound I-42, 3-benzyl-6-(2-bromobenzyl)-2,3,4,6-tetrahydropyrido[3,4-c][1,8]naphthyridine-5-(1H)-one] had a negative logarithm of the EC50 (pEC50) of 5.00 to 6.00. In test [2], the pIC50 is greater than 6.00.
The compound `O=c1c2c(n3ncnc3n1Cc1ccc(Cl)cc1)CCN(Cc1cccc(Cl)c1)C2` [Compound I-154, 4-(4-chlorobenzyl)-7-(3-chlorobenzyl)-6,7,8,9-tetrahydropyrido[3,4-e][1,2,4]triazolo[1,5-a]pyrimidine-5(4H)-one] showed a negative-log EC50 (pEC50) in test [1] of 5.00 to 6.00. In test [2], this compound showed a negative logarithm of the IC50 (pIC50) of 5.00 to 6.00.
Compound `Cc1ncc(CN2CCc3c(c(=O)n(Cc4ccccc4)c4ncccc34)C2)s1` [Compound I-35, 6-benzyl-3-((2-methylthiazol-5-yl)methyl)-2,3,4,6-tetrahydropyrido[3,4-c][1,8]naphthyridine-5-(1H)-one] gave a pEC50 in test [1] of 4.00 to 5.00. The pIC50 in test [2] is 5.00 to 6.00.
In test [1], `N#Cc1cccc(CN2CCc3c(c(=O)n(Cc4ccc(C(F)(F)F)cc4)c4ncccc34)C2)c1` [Compound I-83, 6-(4-trifluoromethylbenzyl)-3-(3-cyanobenzyl)-2,3,4,6-tetrahydropyrido[3,4-c][1,8]naphthyridine-5-(1H)-one] had a negative-log EC50 (pEC50) greater than 6.00. In test [2], this compound showed a negative logarithm of the IC50 (pIC50) greater than 6.00.
In the case of `N#Cc1cccc(CN2CCc3c(c(=O)n(Cc4ccc([N+](=O)[O-])cc4)c4ncccc34)C2)c1` [Compound I-88, 6-(4-nitrobenzyl)-3-(3-cyanobenzyl)-2,3,4,6-tetrahydropyrido[3,4-c][1,8]naphthyridine-5-(1H)-one], the pEC50 in test [1] was 5.00 to 6.00. In test [2], this compound showed a negative logarithm of the IC50 (pIC50) of 5.00 to 6.00.
With `O=c1c2c(c3cccnc3n1CC1CCCC1)CCN(Cc1ccccc1)C2` [Compound I-38, 3-benzyl-6-(cyclopentylmethyl)-2,3,4,6-tetrahydropyrido[3,4-c][1,8]naphthyridine-5-(1H)-one], the negative logarithm of the EC50 (pEC50) in test [1] is 4.00 to 5.00. For the same compound, in test [2], the pIC50 was 5.00 to 6.00.
The compound `O=c1c2c(c3scnc3n1Cc1ccc(C(F)(F)F)cc1)CCN(Cc1ccccc1)C2` [Compound I-105, 7-benzyl-4-(4-trifluoromethylbenzyl)-6,7,8,9-tetrahydrothiazolo[4,5-C][2,7]naphthyridine-5(4H)-one] gave a pEC50 in test [1] of 5.00 to 6.00. In test [2], this compound gave a negative-log IC50 (pIC50) of 5.00 to 6.00.
In test [1], `O=c1c2c(n3ccnc3n1Cc1ccccc1)CCN(Cc1cccc(Cl)c1)C2` [Compound I-109, 7-(3-chlorobenzyl)-4-benzyl-6,7,8,9-tetrahydroimidazo[1,2-a]pyrido[3,4-e]pyrimidine-5(4H)-one] gave a negative logarithm of the EC50 (pEC50) greater than 6.00. This compound had a pIC50 in test [2] greater than 6.00.
Take `O=c1c2c(c3cccnc3n1Cc1ccc(Br)cc1)CCN(Cc1cccc(F)c1)C2` [Compound I-77, 3-(3-fluorobenzyl)-6-(4-bromobenzyl)-2,3,4,6-tetrahydropyrido[3,4-c][1,8]naphthyridine-5-(1H)-one]: in test [1], the pEC50 is greater than 6.00. The pIC50 in test [2] is greater than 6.00.
In the case of `O=c1c2c(c3cccnc3n1Cc1cccc(Br)c1)CCN(Cc1ccccc1)C2` [Compound I-48, 3-benzyl-6-(3-bromobenzyl)-2,3,4,6-tetrahydropyrido[3,4-c][1,8]naphthyridine-5-(1H)-one], in test [1], the negative-log EC50 (pEC50) is greater than 6.00. Also, in test [2], the pIC50 was greater than 6.00.
In test [1], `COc1ccc(Cn2c(=O)c3c(n4ccnc24)CCN(Cc2cccc(C)c2)C3)cc1` [Compound I-145, 7-(3-methylbenzyl)-4-(4-methoxybenzyl)-6,7,8,9-tetrahydroimidazo[1,2-a]pyrido[3,4-e]pyrimidine-5(4H)-one] had a negative-log EC50 (pEC50) greater than 6.00. Also, the negative-log IC50 (pIC50) in test [2] is greater than 6.00.
In turn, `Cc1ccc(CN2CCc3c(c(=O)n(Cc4ccccc4)c4ncccc34)C2)cc1` [Compound I-21, 6-benzyl-3-(4-methylbenzyl)-2,3,4,6-tetrahydropyrido[3,4-c][1,8]naphthyridine-5-(1H)-one] had a negative-log EC50 (pEC50) in test [1] of 5.00 to 6.00. The negative logarithm of the IC50 (pIC50) in test [2] was greater than 6.00.
`O=c1c2c(c3cccnc3n1Cc1ccccc1)CCN(Cc1ccccc1F)C2` [Compound I-6, 6-benzyl-3-(2-fluorobenzyl)-2,3,4,6-tetrahydropyrido[3,4-c][1,8]naphthyridine-5-(1H)-one] showed a pEC50 in test [1] of 5.00 to 6.00. Besides, the negative logarithm of the IC50 (pIC50) in test [2] was greater than 6.00.
For `O=c1c2c(n3nccc3n1Cc1ccc(C(F)(F)F)cc1)CCN(Cc1ccccc1)C2` [Compound I-159, 4-(4-trifluoromethylbenzyl)-7-benzyl-6,7,8,9-tetrahydropyrazolo[1,5-a]pyrido[3,4-e]pyrimidine-5(4H)-one], in that order: 5.00 to 6.00 and 5.00 to 6.00.
The compound `O=c1c2c(c3cccnc3n1Cc1ccc(F)cc1)CCN(Cc1cccc(Br)c1)C2` [Compound I-73, 3-(3-bromobenzyl)-6-(4-fluorobenzyl)-2,3,4,6-tetrahydropyrido[3,4-c][1,8]naphthyridine-5-(1H)-one] showed a pEC50 in test [1] greater than 6.00. In test [2], this compound gave a negative-log IC50 (pIC50) greater than 6.00.
In turn, `O=c1c2c(n3ccnc3n1Cc1ccc(C(F)(F)F)cc1)CCN(Cc1cccc(Cl)c1)C2` [Compound I-129, 7-(3-chlorobenzyl)-4-(4-trifluoromethylbenzyl)-6,7,8,9-tetrahydroimidazo[1,2-a]pyrido[3,4-e]pyrimidine-5(4H)-one] gave a negative logarithm of the IC50 (pIC50) in test [2] greater than 6.00.
